Test [1] relates to Newcastle disease virus (NDV), influenza virus and tobacco-mosaic virus. The following applies: cited from earlier work.
Test [2] deals with genera Bacillus, Candida, Microbacterium. The conditions noted are these: cited from earlier work.
In the next test the test system is Eimeria tenella. The test can be described thus: Inhibitory activity against coccidiosis in chicks orally inoculated with Eimeria tenella oocysts. The format is in vivo, chicks (domestic fowls) infected with Eimeria tenella. Details: key to Presence of hemaferia: -: Not existing; ±: Something like hemaferia is likely to exist; +: A little hemaferia exists; ++: Distinct hemaferiae exist in places; +++: Distinct hemaferiae exist almost over the whole; ++++: The whole are hemaferiae. How it is done: Inhibitory activity of tunicamine derivative C against coccidiosis was tested in the following manner. Primary chicks newly-hatched out were raised with a standard assorted feed for chicks containing no tunicamine derivative C for the first 7 days and on and after the 8th day with the same feed as above but containing a 100 ppm or 200 ppm concentration of tunicamine derivative C. On the 8th day from the hatch the body weight of the chicks was taken and they were divided into test groups of five chicks per group so as to balance the weight distribution for respective groups. On the 9th day, each chick was orally inoculated with 5.0×10^4 matured oocysts of Eimeria tenella. Assessment was made by observation and determination of the presence of […] on the 4, 5, 6, 7 and 8 from day inoculation; percent of survivals on the 8th day and the extend of symptoms on the 8th day from the inoculation were then evaluated.

Setting [3] is: 100 ppm in feed, 8th day from inoculation.
The mark [4] stands for this setting: 200 ppm in feed, 8th day from inoculation.

For the molecule tunicamycin, the antiviral activity entry in test [1] is “high”. The antibacterial activity entry in test [2] was “high”.

On to `NC1C(O)OC(CC(O)C2OC(n3ccc(=O)[nH]c3=O)C(O)C2O)C(O)C1O` (stereo not shown) [tunicamine derivative C], for which the “Relative increase in body weight” value in the test on Eimeria tenella (100 ppm in feed) is listed as 96%; in the test with Eimeria tenella (200 ppm in feed), 102%. The Presence of hemaferia result in the test with Eimeria tenella (100 ppm in feed, 4th day from inoculation) is given as “-”; with Eimeria tenella (100 ppm in feed, 5th day from inoculation), “-”; in the test on Eimeria tenella (100 ppm in feed, 6th day from inoculation) it was “±”; with Eimeria tenella (100 ppm in feed, 7th day from inoculation), “±”; in the test on Eimeria tenella (setting [3]), “+”; in the test on Eimeria tenella (200 ppm in feed, 4th day from inoculation), “-”. Further, the Presence of hemaferia result with Eimeria tenella (200 ppm in feed, 5th day from inoculation) was “-”; with Eimeria tenella (200 ppm in feed, 6th day from inoculation) it was “-”; in the test on Eimeria tenella (200 ppm in feed, 7th day from inoculation) it was “-”; in the test on Eimeria tenella (setting [4]), “-”. In addition, the Percent of survivals in the test with Eimeria tenella (setting [3]) and in the test on Eimeria tenella (setting [4]) was 100% each time.

Values taken from patent US4202968A, “New tunicamine derivatives and their preparation” (Meiji Seika Kaisha, Ltd., priority 1977, dated 1980).
